Experimental data from patent US11109593B2, “Isoxazolin-5-one derivative and herbicide containing same as active ingredient” (HOKKO CHEMICAL INDUSTRY CO., LTD., priority 2017, dated 2021).

These compounds were tested on Echinochloa crus-galli (assay: Test Example 1: herbicidal effect test by treatment of rice paddy soil (immediately after seeding)). Conditions: 120 g/10a active ingredient, dry weight vs untreated area, 14 days after treatment.
Type: in vivo
In short: (§1)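 Paddy soil in pots with compound fertilizer, puddled; 30 seeds per species sown at 0–1 cm, flooded ~3 cm, greenhouse. Water-diluted emulsions dropped onto water immediately after seeding at 120 g active ingredient per 10 ares, duplicate. Herbicidal rate (%) from plant dry weight versus untreated, 14 days after treatment.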
CCCC(c1ccccc1)n1oc(=O)c(Cc2ccccc2NS(=O)(=O)C(F)(F)F)c1C (centres unmarked) [Compound 1-212] was tested, and the “Herbicidal rate (%) Echinochloa crus-galli” value was 90%. For CSCCn1oc(=O)c(Cc2ccccc2N(S(C)(=O)=O)S(=O)(=O)C(F)(F)F)c1C [Compound 1-900], the “Herbicidal rate (%) Echinochloa crus-galli” value was 90%.

Each compound was assayed on Scirpus juncoides in the same assay as above. Conditions: 120 g/10a active ingredient, dry weight vs untreated area, 14 days after treatment.
Type: in vivo
In short: as §1
With CCCC(c1ccccc1)n1oc(=O)c(Cc2ccccc2NS(=O)(=O)C(F)(F)F)c1C (centres unmarked) [Compound 1-212] the “Herbicidal rate (%) Scirpus juncoides” value was 90%. In the case of CSCCn1oc(=O)c(Cc2ccccc2N(S(C)(=O)=O)S(=O)(=O)C(F)(F)F)c1C [Compound 1-900], the “Herbicidal rate (%) Scirpus juncoides” value is reported as 90%.

Each compound was assayed on broad leaf weeds (Lindernia pyxidaria and Monochoria vaginalis) in the same assay as above. Conditions: Lindernia pyxidaria, 120 g/10a active ingredient, dry weight vs untreated area, 14 days after treatment.
Type: in vivo
In short: as §1
CCCC(c1ccccc1)n1oc(=O)c(Cc2ccccc2NS(=O)(=O)C(F)(F)F)c1C (centres unmarked) [Compound 1-212] was tested, and the “Herbicidal rate (%) Lindernia pyxidaria” value was 90%. For CSCCn1oc(=O)c(Cc2ccccc2N(S(C)(=O)=O)S(=O)(=O)C(F)(F)F)c1C [Compound 1-900], the “Herbicidal rate (%) Lindernia pyxidaria” value was 90%.

Same assay, conditions: Monochoria vaginalis, 120 g/10a active ingredient, dry weight vs untreated area, 14 days after treatment
With CCCC(c1ccccc1)n1oc(=O)c(Cc2ccccc2NS(=O)(=O)C(F)(F)F)c1C (centres unmarked) [Compound 1-212] the “Herbicidal rate (%) Monochoria vaginalis” value was 80%. In the case of CSCCn1oc(=O)c(Cc2ccccc2N(S(C)(=O)=O)S(=O)(=O)C(F)(F)F)c1C [Compound 1-900], the “Herbicidal rate (%) Monochoria vaginalis” value is reported as 90%.

These compounds were tested on Echinochloa crus-galli (assay: Test Example 2: herbicidal effect test by treatment during growing period in paddy rice cultivation (seven days after seeding)). Conditions: 120 g/10a active ingredient, assessed 14 days after treatment, dry weight vs untreated area.
Type: in vivo
In short: (§2)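 Seeds sown 0–1 cm deep in puddled, fertilised paddy soil with about 3 cm standing water in a glass greenhouse. Diluted emulsion dropped into the water seven days after seeding at 120 g active ingredient per 10 ares. Herbicidal rate (%) from mean dry weight vs untreated, duplicate, 14 days after treatment.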
For CCCC(c1ccccc1)n1oc(=O)c(Cc2ccccc2NS(=O)(=O)C(F)(F)F)c1C (centres unmarked) [Compound 1-212], the “Herbicidal rate (%) Echinochloa crus-galli” value was 90%. With CSCCn1oc(=O)c(Cc2ccccc2N(S(C)(=O)=O)S(=O)(=O)C(F)(F)F)c1C [Compound 1-900] the “Herbicidal rate (%) Echinochloa crus-galli” value was 90%.

Each compound was assayed on Scirpus juncoides in the same assay as above. Conditions: 120 g/10a active ingredient, assessed 14 days after treatment, dry weight vs untreated area.
Type: in vivo
In short: as §2
In the case of CCCC(c1ccccc1)n1oc(=O)c(Cc2ccccc2NS(=O)(=O)C(F)(F)F)c1C (centres unmarked) [Compound 1-212], the “Herbicidal rate (%) Scirpus juncoides” value is reported as 90%. For CSCCn1oc(=O)c(Cc2ccccc2N(S(C)(=O)=O)S(=O)(=O)C(F)(F)F)c1C [Compound 1-900], the “Herbicidal rate (%) Scirpus juncoides” value was 90%.

The compounds below were run on broad leaf weeds (Lindernia pyxidaria and Monochoria vaginalis) in the same assay as above. Conditions: Lindernia pyxidaria, 120 g/10a active ingredient, assessed 14 days after treatment, dry weight vs untreated area.
Type: in vivo
In short: as §2
With CCCC(c1ccccc1)n1oc(=O)c(Cc2ccccc2NS(=O)(=O)C(F)(F)F)c1C (centres unmarked) [Compound 1-212] the “Herbicidal rate (%) Lindernia pyxidaria” value was 70%. For CSCCn1oc(=O)c(Cc2ccccc2N(S(C)(=O)=O)S(=O)(=O)C(F)(F)F)c1C [Compound 1-900], the “Herbicidal rate (%) Lindernia pyxidaria” value was 90%.

Same assay, conditions: Monochoria vaginalis, 120 g/10a active ingredient, assessed 14 days after treatment, dry weight vs untreated area
With CCCC(c1ccccc1)n1oc(=O)c(Cc2ccccc2NS(=O)(=O)C(F)(F)F)c1C (centres unmarked) [Compound 1-212] the “Herbicidal rate (%) Monochoria vaginalis” value was 90%. With CSCCn1oc(=O)c(Cc2ccccc2N(S(C)(=O)=O)S(=O)(=O)C(F)(F)F)c1C [Compound 1-900] the “Herbicidal rate (%) Monochoria vaginalis” value was 90%.

These compounds were tested on Amaranthus viridis (assay: Test Example 3: herbicidal effect test by treatment of dry field farming soil (one day after seeding)). Conditions: 120 g/10a active ingredient, evaluated 14 days after treatment.
Type: in vivo
In short: (§3)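 Alluvial dry-field soil in pots, top 1 cm mixed with 20 seeds per weed species. One day after seeding, the water-diluted emulsion was sprayed onto the soil surface at 100 L per 10 ares (120 g active ingredient per 10 ares). Duplicate pots; herbicidal rate (%) from plant dry weight versus untreated, 14 days after treatment.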
In the case of CCCC(c1ccccc1)n1oc(=O)c(Cc2ccccc2NS(=O)(=O)C(F)(F)F)c1C (centres unmarked) [Compound 1-212], the “herbicidal rate, Amaranthus viridis” value is reported as 0%. For CSCCn1oc(=O)c(Cc2ccccc2N(S(C)(=O)=O)S(=O)(=O)C(F)(F)F)c1C [Compound 1-900], the “herbicidal rate, Amaranthus viridis” value was 90%.

Each compound was assayed on Chenopodium album in the same assay as above. Conditions: 120 g/10a active ingredient, evaluated 14 days after treatment.
Type: in vivo
In short: as §3
For CCCC(c1ccccc1)n1oc(=O)c(Cc2ccccc2NS(=O)(=O)C(F)(F)F)c1C (centres unmarked) [Compound 1-212], the “herbicidal rate, Chenopodium album” value was 0%. For CSCCn1oc(=O)c(Cc2ccccc2N(S(C)(=O)=O)S(=O)(=O)C(F)(F)F)c1C [Compound 1-900], the “herbicidal rate, Chenopodium album” value was 90%.

These compounds were tested on Echinochloa crus-galli in the same assay as above. Conditions: 120 g/10a active ingredient, evaluated 14 days after treatment.
Type: in vivo
In short: as §3
CCCC(c1ccccc1)n1oc(=O)c(Cc2ccccc2NS(=O)(=O)C(F)(F)F)c1C (centres unmarked) [Compound 1-212] was tested, and the “herbicidal rate, Echinochloa crus-galli” value was 90%. In the case of CSCCn1oc(=O)c(Cc2ccccc2N(S(C)(=O)=O)S(=O)(=O)C(F)(F)F)c1C [Compound 1-900], the “herbicidal rate, Echinochloa crus-galli” value is reported as 90%.

What follows are compounds tested on southern crabgrass in the same assay as above. Conditions: 120 g/10a active ingredient, evaluated 14 days after treatment.
Type: in vivo
In short: as §3
In the case of CCCC(c1ccccc1)n1oc(=O)c(Cc2ccccc2NS(=O)(=O)C(F)(F)F)c1C (centres unmarked) [Compound 1-212], the “herbicidal rate, southern crabgrass” value is reported as 90%. For CSCCn1oc(=O)c(Cc2ccccc2N(S(C)(=O)=O)S(=O)(=O)C(F)(F)F)c1C [Compound 1-900], the “herbicidal rate, southern crabgrass” value was 90%.

Each compound was assayed on Amaranthus viridis (assay: Test Example 4: herbicidal effect test by treatment of leave and stem in dry field farming (seven days after seeding)). Conditions: 120 g/10a active ingredient; emulsion sprayed seven days after seeding; evaluated 14 days after treatment.
Type: in vivo
In short: (§4)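 Weeds were seeded at 20 seeds per species into the top 1 cm of alluvial upland soil in pots, then sprayed 7 days after seeding with water-diluted emulsifiable concentrate at 100 L/10 a, giving 120 g active ingredient/10 a. Duplicate pots; herbicidal rate (%) was 14 days post-treatment, from dry weight versus untreated.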
CCCC(c1ccccc1)n1oc(=O)c(Cc2ccccc2NS(=O)(=O)C(F)(F)F)c1C (centres unmarked) [Compound 1-212] was tested, and the “herbicidal effect (herbicidal rate), Amaranthus viridis” value was 80%. In the case of CSCCn1oc(=O)c(Cc2ccccc2N(S(C)(=O)=O)S(=O)(=O)C(F)(F)F)c1C [Compound 1-900], the “herbicidal effect (herbicidal rate), Amaranthus viridis” value is reported as 40%.

These compounds were tested on Chenopodium album in the same assay as above. Conditions: 120 g/10a active ingredient; emulsion sprayed seven days after seeding; evaluated 14 days after treatment.
Type: in vivo
In short: as §4
In the case of CCCC(c1ccccc1)n1oc(=O)c(Cc2ccccc2NS(=O)(=O)C(F)(F)F)c1C (centres unmarked) [Compound 1-212], the “herbicidal effect (herbicidal rate), Chenopodium album” value is reported as 60%. In the case of CSCCn1oc(=O)c(Cc2ccccc2N(S(C)(=O)=O)S(=O)(=O)C(F)(F)F)c1C [Compound 1-900], the “herbicidal effect (herbicidal rate), Chenopodium album” value is reported as 40%.

These compounds were tested on Echinochloa crus-galli in the same assay as above. Conditions: 120 g/10a active ingredient; emulsion sprayed seven days after seeding; evaluated 14 days after treatment.
Type: in vivo
In short: as §4
CCCC(c1ccccc1)n1oc(=O)c(Cc2ccccc2NS(=O)(=O)C(F)(F)F)c1C (centres unmarked) [Compound 1-212] was tested, and the “herbicidal effect (herbicidal rate), Echinochloa crus-galli” value was 90%. With CSCCn1oc(=O)c(Cc2ccccc2N(S(C)(=O)=O)S(=O)(=O)C(F)(F)F)c1C [Compound 1-900] the “herbicidal effect (herbicidal rate), Echinochloa crus-galli” value was 90%.

The compounds below were run on southern crabgrass in the same assay as above. Conditions: 120 g/10a active ingredient; emulsion sprayed seven days after seeding; evaluated 14 days after treatment.
Type: in vivo
In short: as §4
CCCC(c1ccccc1)n1oc(=O)c(Cc2ccccc2NS(=O)(=O)C(F)(F)F)c1C (centres unmarked) [Compound 1-212] was tested, and the “herbicidal effect (herbicidal rate), southern crabgrass” value was 90%. CSCCn1oc(=O)c(Cc2ccccc2N(S(C)(=O)=O)S(=O)(=O)C(F)(F)F)c1C [Compound 1-900] was tested, and the “herbicidal effect (herbicidal rate), southern crabgrass” value was 90%.
